Test results taken from patent US9155759B2, “Heterochain aliphatic poly-N-oxide copolymers and vaccinating agents and drugs based thereon” (priority 2010, dated 2015).
Marks after values point to notes of the source that are not given here.

Assays:
[1] = Antidotal properties at acute CuSo4 poisoning; format: in vivo
Description: The investigation was done in vivo at an acute CuSo4 poisoning. The preparations are administered to 7 groups of animals of which a normal saline solution is administered to the animals of the first group, CuSo4 alone in the doses fatal for animals (mg/kg): 12.5; 25.0; and 50.0 to the animals of groups 2÷4, and the similar CuSo4 doses in combination with the similar doses of CP—NO-3-1 are administered to the animals of groups 5÷7.
The results of investigations presented in table 4 testify to a pronounced antidotal effect of CP—NO.

erythrocytes = test: Quartz (SiO2) erythrocyte hemolysis model; format: cell-based, Human; details: for Protection from hemolysis / Hemolysis: SiO2 3 mg; for Hemolysis: 1 hour, 37° C.
Description: The investigation was done on a model of quartz (SiO2) erythrocyte hemolysis using the international standard of quartz dust DQ-12 having a dispersion degree of less than 3 μm according to the A. David method (1976). Human blood was taken with heparin, erythrocytes were thrice washed in a 10-fold volume of a water-white Henx solution followed by centrifuging at 3000 rpm for 10 min. An erythrocyte suspension was resuspended to a 4% concentration ([…]). All investigations were done in 3÷5 parallel assays. The samples of SiO2 and erythrocytes were taken under continuous agitation on a magnetic agitator.
1 ml of a 4% erythrocyte suspension was mixed with 1 ml of the investigated preparation adding 1 ml of 0.3% (3 mg/ml) of a SiO2 suspension and incubated for 1 hour at a temperature of 37° C. carefully shaking the samples every 5 minutes. After incubation all samples were added with 7 ml of a buffer, it was centrifuged and the supernatant was photometered on SF-26 at 540 nm. The results of hemolysis were expressed in percents taking as 100% the content of hemoglobin in the samples of 1 ml of a 4% erythrocyte suspension with 9 ml of distilled water. The protective effect of the investigated preparations was calculated according to the formula and expressed in percents: […]
E540 K SiO2 is extinction of the control samples—a “water-silicon-erythrocytes” test tube.
A property of CP—NO to protect erythrocytes from hemolysis was compared to high molecular plasma-substituting solutions of polyvinylpyrrolidone (hemodez), dextran (polyglucin) and albumin. As a buffer, a water-white Henx solution was used.

Compound | % of animal death at days 1-2 ([1]; CuSO4 12.5 mg/kg alone) [%] | Animal survivability at day 30 ([1]; CuSO4 12.5 mg/kg alone) [%] | % of animal death at days 1-2 ([1]; CuSO4 25.0 mg/kg alone) [%] | Animal survivability at day 30 ([1]; CuSO4 25.0 mg/kg alone) [%] | % of animal death at days 1-2 ([1]; CuSO4 50.0 mg/kg alone) [%] | Animal survivability at day 30 ([1]; CuSO4 50.0 mg/kg alone) [%] | protective properties against hemolysis (in words) (erythrocytes; comparison detoxicants) | Protection from hemolysis (erythrocytes; dose 100 μg/ml) [%] | Hemolysis (erythrocytes; dose 100 μg/ml) [%] | Protection from hemolysis (erythrocytes; dose 1000 μg/ml) | Hemolysis (erythrocytes; dose 1000 μg/ml)
O=S(=O)([O-])[O-].[Cu+2] [CuSO4] | 100 | 0 | 100 | 0 | 100 | 0 | – | – | – | – | –
Albumin | – | – | – | – | – | – | a pronounced effect is achieved only in high doses | 18.0 | 82.0 | 86.5* % | 13.5* %
